Reference: ChEMBL document CHEMBL1201862, “PubChem BioAssay data set” (2004)
Active and inactive are the calls of the source.

Assays:
[1] = alpha-synuclein stem-loop luciferase translation blockers – H4 neuroglioma cells, luminescence, confirmation (AID 1988); assay type: functional, cell-based
HT-1080 = experiment: HT1080 cell viability loss – fluorescence readout (AID 620); assay type: functional, cell-based; details: Homo sapiens
[2] = Luminescence Cell-Based Dose Response HTS to Identify Inhibitors of 5'UTR Stem-Loop Driven Prion Protein mRNA Translation in H4 Neuroglioblastoma Cells. [Related pubchem assays: 1827 (Project Summary), 1813 (Primary HTS)]; assay type: functional
[3] = molecular target: Luciferin 4-monooxygenase (Photinus pyralis, UniProt P08659); experiment: Counter Screen for Luciferase-based Assay Positives. [Related pubchem assays: 620, 618, 411 ]
[4] = molecular target: Eukaryotic translation initiation factor 4H (Homo sapiens, UniProt Q15056); experiment: eIF4H binding inhibition – biochemical, uHTS, fluorescence polarization, translation initiation inhibitor project, primary screen (AID 2012)
[5] = molecular target: Polyadenylate-binding protein 1 (Homo sapiens, UniProt P11940); experiment: blockers of PABP interaction with poly(A) – biochemical, fluorescence polarization, […] (AID 2014)
[6] = molecular target: Melanin-concentrating hormone receptor 1 (Homo sapiens, UniProt Q99705); experiment: Fluorescence-based counterscreen for antagonists of the G-protein coupled receptor 7 (GPR7): cell-based high throughput dose response assay to identify antagonists of the melanin-concentrating hormone receptor 1 (MCHR1).; assay type: functional
[7] = molecular target: T1, Neuropeptides B/W receptor type 1 (Homo sapiens, UniProt P48145); experiment: Fluorescence-based dose response cell-based high throughput screening assay to identify antagonists of the G-protein coupled receptor 7 (GPR7). [Related pubchem assays: 1952 (Screening assay (GPR7 antagonists).), 1880 (Summary AID.)]; assay type: functional
T1 sequence (P48145 whole entry): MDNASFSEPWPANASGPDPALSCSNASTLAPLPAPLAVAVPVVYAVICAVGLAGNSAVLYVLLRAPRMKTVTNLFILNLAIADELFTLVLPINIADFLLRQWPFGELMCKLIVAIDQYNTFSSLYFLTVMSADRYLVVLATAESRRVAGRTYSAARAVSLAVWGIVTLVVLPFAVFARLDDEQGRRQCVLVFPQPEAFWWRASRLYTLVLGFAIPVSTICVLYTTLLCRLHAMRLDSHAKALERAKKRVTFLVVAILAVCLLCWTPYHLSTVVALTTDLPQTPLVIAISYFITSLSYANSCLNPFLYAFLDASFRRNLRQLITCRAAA

INS1 = experiment: INS-1E survival protection against cytokine death – cell-based, luminescence, retest, dose response (AID 449756); assay type: functional; details: Rattus norvegicus;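 note: cell death triggered by IL-1 beta plus TNF-alpha plus IFN-gamma mixture; protective hits raise ATP signal compared with cytokine alone wells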
[8] = molecular target: FAD-linked sulfhydryl oxidase ALR (Homo sapiens, UniProt P55789); experiment: ALR-catalysed DTT oxidation blockers – biochemical, H2O2 detection, luminescence, cherry-pick, dose response (AID 493248)
[9] = decrease of insulin promoter-GFP reporter – imaging, high-content screening, mouse beta cells (AID 1628); assay type: functional; details: MIN6
[10] = MIN6 cell viability loss – mouse insulinoma, cytotoxicity control, dose response (AID 2122); assay type: functional;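 note: confirmatory high-throughput counterscreen run to flag cytotoxic compounds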
Protein Rev = Protein Rev (Human immunodeficiency virus type 1 group M subtype B (isolate WMJ22)(HIV-1), UniProt P05866); experiment: inhibitors of Rev protein–RRE RNA complex – biochemical, protein-RNA interaction, dose response (AID 842); design: species or system Human immunodeficiency virus 1
[11] = molecular target: Lysosomal acid glucosylceramidase (Homo sapiens, UniProt P04062); experiment: Dose response cell-based high throughput screening assay to identify enhancers of beta-glucosidase activity. [Related pubchem assays: 784 ]; assay type: functional
[12] = viability of uninfected HEp-2 cells – cell-based, HTS, cytotoxicity control for RSV inhibitor project, dose response (AID 2410); assay type: functional; details: human respiratory syncytial virus
[13] = molecular target: T2, Heat shock 70 kDa protein 1A (Homo sapiens, UniProt P0DMV8); experiment: small-molecule inhibition of Hsp70 – biochemical, TR-FRET (AID 786)
[14] = molecular target: T2, Heat shock 70 kDa protein 1A; experiment: small molecules displacing fluorescent ligand from Hsp70 – biochemical, fluorescence polarization, primary screen (AID 583)
Leucine aminopeptidase = molecular target: T3, Leucine aminopeptidase (Plasmodium falciparum 3D7, UniProt Q8IL11); experiment: P. falciparum M17LAP inhibitors, primary screen, biochemical, fluorogenic H-Leu-NHMec substrate, 1536-well (AID 1619); assay type: functional
T3 sequence (Q8IL11 whole entry): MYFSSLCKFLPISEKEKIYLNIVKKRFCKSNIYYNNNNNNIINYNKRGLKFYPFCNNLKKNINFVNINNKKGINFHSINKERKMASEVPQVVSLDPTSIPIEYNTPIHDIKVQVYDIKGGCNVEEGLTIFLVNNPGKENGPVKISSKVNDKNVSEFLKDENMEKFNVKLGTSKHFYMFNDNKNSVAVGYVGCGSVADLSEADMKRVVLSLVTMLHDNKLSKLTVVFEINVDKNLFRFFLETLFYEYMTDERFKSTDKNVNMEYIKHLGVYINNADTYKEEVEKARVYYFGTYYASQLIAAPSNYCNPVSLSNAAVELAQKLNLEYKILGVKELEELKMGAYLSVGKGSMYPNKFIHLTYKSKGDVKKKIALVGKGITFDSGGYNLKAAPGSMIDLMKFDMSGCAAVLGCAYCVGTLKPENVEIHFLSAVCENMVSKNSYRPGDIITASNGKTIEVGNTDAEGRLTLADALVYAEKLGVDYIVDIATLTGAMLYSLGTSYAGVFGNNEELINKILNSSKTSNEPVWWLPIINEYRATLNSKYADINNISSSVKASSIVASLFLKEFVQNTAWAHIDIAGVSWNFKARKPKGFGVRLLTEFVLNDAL

[15] = molecular target: T4, Mannose-6-phosphate isomerase (Homo sapiens, UniProt P34949); experiment: MPI enzyme activity inhibition – biochemical, fluorescence intensity, coupled assay, primary screen (AID 1209)
T4 sequence (P34949 whole entry): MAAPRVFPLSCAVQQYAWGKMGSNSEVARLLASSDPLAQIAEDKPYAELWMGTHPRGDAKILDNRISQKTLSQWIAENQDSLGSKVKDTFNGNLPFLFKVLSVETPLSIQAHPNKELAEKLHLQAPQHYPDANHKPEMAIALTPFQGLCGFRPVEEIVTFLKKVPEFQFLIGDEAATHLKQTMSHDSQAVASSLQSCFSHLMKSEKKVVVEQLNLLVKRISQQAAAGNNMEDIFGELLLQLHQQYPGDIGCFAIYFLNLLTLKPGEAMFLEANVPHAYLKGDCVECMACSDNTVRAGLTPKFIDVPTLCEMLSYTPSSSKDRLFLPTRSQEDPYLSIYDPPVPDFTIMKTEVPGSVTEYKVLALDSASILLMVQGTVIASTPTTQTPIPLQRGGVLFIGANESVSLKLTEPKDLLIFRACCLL

Beta-galactosidase = Beta-galactosidase (Escherichia coli, UniProt Q8VNN2); assay type: functional
[16] = molecular target: T5, Kappa-type opioid receptor (Homo sapiens, UniProt P41145); assay type: functional
[17] = molecular target: T5, Kappa-type opioid receptor; assay type: functional; remark: listed apart in the source
Aminopeptidase N = molecular target: T6, Aminopeptidase N (Plasmodium falciparum FcB1/Columbia, UniProt O96935); experiment: malaria alanyl aminopeptidase activity blockers – biochemical, fluorogenic H-Leu-NHMec substrate, 1536-well (AID 1445); design: species or system Plasmodium falciparum 3D7, 3D7
T6 sequence (O96935 whole entry): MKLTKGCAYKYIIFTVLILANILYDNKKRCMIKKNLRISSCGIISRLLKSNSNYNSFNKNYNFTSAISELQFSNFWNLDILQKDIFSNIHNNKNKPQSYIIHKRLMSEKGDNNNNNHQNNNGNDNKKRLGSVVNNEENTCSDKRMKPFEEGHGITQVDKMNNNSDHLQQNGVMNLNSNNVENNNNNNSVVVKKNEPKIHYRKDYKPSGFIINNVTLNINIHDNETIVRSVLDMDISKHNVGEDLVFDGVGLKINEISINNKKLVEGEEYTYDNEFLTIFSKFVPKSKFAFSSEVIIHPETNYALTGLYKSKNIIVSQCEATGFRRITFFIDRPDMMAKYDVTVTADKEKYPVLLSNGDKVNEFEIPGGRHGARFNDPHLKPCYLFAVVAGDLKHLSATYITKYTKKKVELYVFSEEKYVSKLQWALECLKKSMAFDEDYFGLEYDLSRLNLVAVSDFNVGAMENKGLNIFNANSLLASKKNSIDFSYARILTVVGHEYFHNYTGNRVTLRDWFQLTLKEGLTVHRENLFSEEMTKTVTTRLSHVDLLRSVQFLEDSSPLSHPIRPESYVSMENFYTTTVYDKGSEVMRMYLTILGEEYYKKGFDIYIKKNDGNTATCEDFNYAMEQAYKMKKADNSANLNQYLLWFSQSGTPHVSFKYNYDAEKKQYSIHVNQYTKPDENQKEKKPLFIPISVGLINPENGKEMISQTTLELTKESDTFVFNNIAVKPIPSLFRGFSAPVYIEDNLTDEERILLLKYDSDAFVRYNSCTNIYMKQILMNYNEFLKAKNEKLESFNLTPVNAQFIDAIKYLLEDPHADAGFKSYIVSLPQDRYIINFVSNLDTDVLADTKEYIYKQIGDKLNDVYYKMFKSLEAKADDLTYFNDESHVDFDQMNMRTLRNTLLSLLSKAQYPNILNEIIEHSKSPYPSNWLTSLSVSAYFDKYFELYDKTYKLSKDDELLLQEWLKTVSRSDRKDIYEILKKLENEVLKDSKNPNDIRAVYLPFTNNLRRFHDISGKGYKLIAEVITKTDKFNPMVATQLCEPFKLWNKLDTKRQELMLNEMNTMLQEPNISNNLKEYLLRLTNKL

Luciferin 4-monooxygenase, sequence (P08659 whole entry): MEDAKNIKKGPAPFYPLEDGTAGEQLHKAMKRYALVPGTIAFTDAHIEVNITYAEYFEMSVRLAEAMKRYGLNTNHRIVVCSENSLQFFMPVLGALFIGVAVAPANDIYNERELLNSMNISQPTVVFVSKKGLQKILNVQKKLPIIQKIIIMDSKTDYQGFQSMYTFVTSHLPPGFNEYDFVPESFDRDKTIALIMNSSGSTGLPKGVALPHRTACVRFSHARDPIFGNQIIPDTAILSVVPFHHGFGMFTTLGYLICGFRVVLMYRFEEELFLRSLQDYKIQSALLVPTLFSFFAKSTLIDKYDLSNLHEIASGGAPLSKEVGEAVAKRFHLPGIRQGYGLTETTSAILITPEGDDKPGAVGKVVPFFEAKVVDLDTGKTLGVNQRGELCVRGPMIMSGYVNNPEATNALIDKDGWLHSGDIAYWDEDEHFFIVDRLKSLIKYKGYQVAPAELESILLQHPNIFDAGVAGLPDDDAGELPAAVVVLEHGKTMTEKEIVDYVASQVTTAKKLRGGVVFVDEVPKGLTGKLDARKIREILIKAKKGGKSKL
T2 sequence (P0DMV8 whole entry): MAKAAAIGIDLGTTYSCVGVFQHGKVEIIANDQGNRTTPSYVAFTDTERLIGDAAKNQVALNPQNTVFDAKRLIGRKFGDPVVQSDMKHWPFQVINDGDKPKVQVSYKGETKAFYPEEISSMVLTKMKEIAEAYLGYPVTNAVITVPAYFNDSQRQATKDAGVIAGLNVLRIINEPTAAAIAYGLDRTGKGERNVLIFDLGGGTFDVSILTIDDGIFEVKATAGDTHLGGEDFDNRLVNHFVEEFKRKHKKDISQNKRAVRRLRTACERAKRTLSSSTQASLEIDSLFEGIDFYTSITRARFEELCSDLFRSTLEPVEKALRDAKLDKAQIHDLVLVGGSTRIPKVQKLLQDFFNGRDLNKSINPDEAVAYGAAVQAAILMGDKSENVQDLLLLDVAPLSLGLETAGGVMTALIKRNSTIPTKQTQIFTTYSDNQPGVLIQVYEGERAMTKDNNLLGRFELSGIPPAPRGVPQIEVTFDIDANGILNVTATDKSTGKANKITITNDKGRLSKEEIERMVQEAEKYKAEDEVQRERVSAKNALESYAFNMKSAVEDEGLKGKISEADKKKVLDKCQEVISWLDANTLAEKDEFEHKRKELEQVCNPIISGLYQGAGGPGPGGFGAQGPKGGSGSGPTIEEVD
Melanin-concentrating hormone receptor 1, sequence (Q99705 whole entry): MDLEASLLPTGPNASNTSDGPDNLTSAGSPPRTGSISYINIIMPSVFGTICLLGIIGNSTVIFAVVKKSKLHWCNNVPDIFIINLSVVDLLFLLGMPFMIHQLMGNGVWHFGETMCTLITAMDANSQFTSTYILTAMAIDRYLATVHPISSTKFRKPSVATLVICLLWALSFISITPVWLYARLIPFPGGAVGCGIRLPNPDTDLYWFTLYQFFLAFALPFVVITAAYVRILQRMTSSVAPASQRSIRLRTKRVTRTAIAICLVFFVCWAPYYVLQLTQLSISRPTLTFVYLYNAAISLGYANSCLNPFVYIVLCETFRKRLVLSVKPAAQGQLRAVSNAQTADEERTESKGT
T5 sequence (P41145 whole entry): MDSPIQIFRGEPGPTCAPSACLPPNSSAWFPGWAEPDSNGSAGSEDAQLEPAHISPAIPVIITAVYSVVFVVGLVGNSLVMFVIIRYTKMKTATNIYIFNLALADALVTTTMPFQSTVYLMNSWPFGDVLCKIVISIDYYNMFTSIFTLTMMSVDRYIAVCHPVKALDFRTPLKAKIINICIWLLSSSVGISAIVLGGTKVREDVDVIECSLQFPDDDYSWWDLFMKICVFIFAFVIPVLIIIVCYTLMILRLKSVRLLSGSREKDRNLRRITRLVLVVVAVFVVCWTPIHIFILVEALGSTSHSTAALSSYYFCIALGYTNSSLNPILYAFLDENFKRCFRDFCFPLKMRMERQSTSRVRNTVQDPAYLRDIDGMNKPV
Polyadenylate-binding protein 1, sequence (P11940 whole entry): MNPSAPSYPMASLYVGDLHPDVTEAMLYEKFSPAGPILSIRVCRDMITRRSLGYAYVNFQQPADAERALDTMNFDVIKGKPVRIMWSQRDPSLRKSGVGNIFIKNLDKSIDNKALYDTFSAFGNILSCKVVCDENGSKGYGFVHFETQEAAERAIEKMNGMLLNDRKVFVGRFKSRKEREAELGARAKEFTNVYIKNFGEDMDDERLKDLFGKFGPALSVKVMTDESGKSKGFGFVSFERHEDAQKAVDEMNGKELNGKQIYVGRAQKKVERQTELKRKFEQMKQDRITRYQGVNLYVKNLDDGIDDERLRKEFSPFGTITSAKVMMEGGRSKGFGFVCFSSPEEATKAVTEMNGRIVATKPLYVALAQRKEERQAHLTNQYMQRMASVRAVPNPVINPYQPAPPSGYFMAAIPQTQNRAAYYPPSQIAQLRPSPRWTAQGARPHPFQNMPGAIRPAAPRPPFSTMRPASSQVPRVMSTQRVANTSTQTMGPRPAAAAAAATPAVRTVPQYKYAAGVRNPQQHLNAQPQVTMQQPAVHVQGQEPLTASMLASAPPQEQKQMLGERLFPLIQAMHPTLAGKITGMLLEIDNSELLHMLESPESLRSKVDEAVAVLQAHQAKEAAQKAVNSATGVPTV
Beta-galactosidase, sequence (Q8VNN2 whole entry): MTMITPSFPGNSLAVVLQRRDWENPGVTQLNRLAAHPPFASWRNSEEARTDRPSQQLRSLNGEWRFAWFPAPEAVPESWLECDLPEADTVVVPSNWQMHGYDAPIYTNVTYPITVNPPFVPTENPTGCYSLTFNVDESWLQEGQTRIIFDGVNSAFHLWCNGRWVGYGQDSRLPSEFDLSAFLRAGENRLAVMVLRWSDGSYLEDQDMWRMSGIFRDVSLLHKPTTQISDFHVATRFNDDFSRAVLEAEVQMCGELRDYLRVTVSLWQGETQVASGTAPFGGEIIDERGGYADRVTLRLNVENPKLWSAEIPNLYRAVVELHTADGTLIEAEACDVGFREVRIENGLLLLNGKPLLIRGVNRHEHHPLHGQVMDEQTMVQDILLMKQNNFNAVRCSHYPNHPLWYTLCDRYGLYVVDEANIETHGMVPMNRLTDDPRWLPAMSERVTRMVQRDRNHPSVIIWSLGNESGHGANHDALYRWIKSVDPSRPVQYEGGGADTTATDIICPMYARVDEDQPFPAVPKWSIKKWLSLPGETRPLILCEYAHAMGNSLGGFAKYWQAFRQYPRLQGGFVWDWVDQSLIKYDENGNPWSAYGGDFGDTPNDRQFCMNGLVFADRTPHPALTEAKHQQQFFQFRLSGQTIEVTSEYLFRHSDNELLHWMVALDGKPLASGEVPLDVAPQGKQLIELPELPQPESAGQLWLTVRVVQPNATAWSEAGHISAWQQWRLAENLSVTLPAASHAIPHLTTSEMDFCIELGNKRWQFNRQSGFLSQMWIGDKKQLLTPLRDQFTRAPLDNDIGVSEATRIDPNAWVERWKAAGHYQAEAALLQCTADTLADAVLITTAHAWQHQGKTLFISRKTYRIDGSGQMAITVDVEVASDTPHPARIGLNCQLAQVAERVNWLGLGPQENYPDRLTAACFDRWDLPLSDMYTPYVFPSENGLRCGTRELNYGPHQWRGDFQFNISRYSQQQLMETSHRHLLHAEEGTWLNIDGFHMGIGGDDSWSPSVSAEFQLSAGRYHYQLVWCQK
Protein Rev, sequence (P05866 whole entry): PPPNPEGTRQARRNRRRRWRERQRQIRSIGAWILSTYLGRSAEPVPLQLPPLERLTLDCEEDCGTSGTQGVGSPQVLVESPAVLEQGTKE
FAD-linked sulfhydryl oxidase ALR, sequence (P55789 whole entry): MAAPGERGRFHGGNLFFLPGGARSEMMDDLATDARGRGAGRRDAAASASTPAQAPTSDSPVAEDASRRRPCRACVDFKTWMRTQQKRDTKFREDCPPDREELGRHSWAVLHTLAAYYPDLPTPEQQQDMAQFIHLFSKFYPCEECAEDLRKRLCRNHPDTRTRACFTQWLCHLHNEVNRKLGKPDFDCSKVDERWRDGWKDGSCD
Lysosomal acid glucosylceramidase, sequence (P04062 whole entry): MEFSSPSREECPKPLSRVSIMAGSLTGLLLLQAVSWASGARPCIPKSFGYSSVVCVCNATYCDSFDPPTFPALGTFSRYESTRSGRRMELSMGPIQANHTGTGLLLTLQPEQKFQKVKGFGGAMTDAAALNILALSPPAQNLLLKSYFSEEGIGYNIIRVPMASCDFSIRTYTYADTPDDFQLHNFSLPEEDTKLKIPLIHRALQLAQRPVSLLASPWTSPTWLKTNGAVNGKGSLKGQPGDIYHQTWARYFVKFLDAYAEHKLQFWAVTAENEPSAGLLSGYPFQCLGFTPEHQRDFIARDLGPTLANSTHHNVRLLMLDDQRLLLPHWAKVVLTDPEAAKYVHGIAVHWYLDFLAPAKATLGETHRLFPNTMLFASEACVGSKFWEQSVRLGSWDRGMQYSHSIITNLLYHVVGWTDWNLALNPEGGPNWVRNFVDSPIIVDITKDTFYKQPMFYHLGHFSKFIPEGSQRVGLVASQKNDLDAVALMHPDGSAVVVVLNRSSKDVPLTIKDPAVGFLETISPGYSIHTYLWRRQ

With `Cc1csc(NC(=O)C2COc3ccccc3O2)n1` (stereo not drawn) the EC50 [1] was 7.32 µM (active), the EC50 (HT-1080) was > 50 µM (not active) and the EC50 [2] was 10.7 µM (inconclusive). For the same compound, the EC50 [3] was 0.56 µM (active).
In the case of `O=C(CN1CCN(S(=O)(=O)/C=C/c2ccccc2)CC1)NC(=O)NCc1ccco1`, the IC50 [4] is reported as 13.1 µM (active) and the IC50 [5] is reported as > 100 µM (inactive).
For `CCOC(=O)c1[nH]c2ccc(OC)cc2c1NS(=O)(=O)c1ccc(OC)cc1OC`, the IC50 [6] was > 43.8 µM (not active) and the IC50 [7] was > 43.8 µM (not active).
For `Cc1cnc(NC(=O)C2COc3ccccc3O2)s1` (stereo not drawn), the EC50 (HT-1080) was > 50 µM (not active) and the EC50 [3] was 1.95 µM (active).
With `C[n+]1c2n(c3ccccc31)N=C(c1ccc(Cl)cc1)CS2` the AC50 (INS1) was 4.54 µM (active), the AC50 [8] was 0.425 µM (active) and the IC50 [9] was 2.51 µM (active). The IC50 [10] was 1.49 µM (active) and the IC50 (Protein Rev) was > 79.4 µM (not active).
With `O=c1cccc2n1CC1CC2CN(Cc2cccc(Cl)c2Cl)C1` (stereo not drawn) the EC50 [11] was > 50 µM (not active) and the CC50 [12] was 23.1 µM (active).
In the case of `CCOC(=O)CNC(=O)CNC(=O)Cn1ccc2ccccc2c1=O`, the IC50 [13] is reported as > 100 µM (not active) and the IC50 [14] is reported as > 100 µM (not active).
For `CC(=O)NNC(=S)NC(=O)c1cccc([N+](=O)[O-])c1`, the IC50 (Leucine aminopeptidase) was 45.8 µM (active) and the IC50 [15] was > 50 µM (not active).
For `O=C(c1cnccn1)N(Cc1cccs1)C1(C(=O)NC2CCCC2)CCCCC1`, the IC50 [6] was > 43.8 µM (not active) and the IC50 [7] was > 43.8 µM (not active).
For `CCOc1cc(/C=C2\SC(=S)N(C(C(=O)O)c3ccccc3)C2=O)ccc1O` (stereo not drawn), the EC50 (Beta-galactosidase) was 14.3 µM (active), the IC50 (Leucine aminopeptidase) was 45.5 µM (active) and the IC50 [16] was 23.2 µM (inactive). The IC50 [17] was over 32 µM and the IC50 (Aminopeptidase N) was 31.8 µM (active).
